Data as given in paper PMC9569420 (Communications Biology, 2022).
“And” between values parts separate entries of the source, which are not always exact repeats. Identical values can stand only once.

Legend:
AKT3 = target: T1, AKT3 (Homo sapiens, UniProt Q9Y243); assay: biochemical
T1 construct: purchased Reaction Biology Corporation

[1] = tested on: intracellular Ca2+ response to HSV-2(G); assay: calcium kinetic measurements (Fura-2), HaCat cells; format: cell-based, human; settings: for mean calcium released: CIMSS without virus (Fig 4b source data)
Procedure: The cells were then transferred to SpectraMaxMF^e temperature-regulated chamber at 37 °C (Molecular Devices Ca) without washing; photometric data for intracellular Ca^2+ concentration [Ca^2+] were generated by exciting cells at 340 and 380 nm and measuring emission at 510 nm every minute for one hour using SoftMaxPro. 5.4 software (Molecular Devices). An intracellular calibration was performed with each experiment by determining the fluorescence ratio (340:380) in the presence of Ca-free 10 mM K2EGTA buffer (Rmin) and 10 mM CaEGTA buffer containing 10 µM ionomycin (Rmax) (C-3008, Calcium Calibration Buffer Kit #1, Invitrogen Molecular Probes).

c-Src = target: T2, c-Src (Homo sapiens, UniProt P12931); assay: biochemical
T2 construct: purchased Reaction Biology Corporation

ZAP70 = target: T3, ZAP70 (Homo sapiens, UniProt P43403); assay: HotSpot kinase assay; format: biochemical; settings: read-out: % Enzyme Activity (relative to DMSO controls)
T3 construct: purchased Reaction Biology Corporation

Akt (pAkt T308) = format: cell-based, monkey; settings: 10µM
VSV-S = format: cell-based, VSV pseudotyped with SARS-CoV-2 spike
LATS1 = target: T4, LATS1 (Homo sapiens, UniProt O95835); assay: HotSpot kinase assay; format: biochemical; settings: read-out: % Enzyme Activity (relative to DMSO controls)
T4 construct: purchased Reaction Biology Corporation

P38a/MAPK14 = target: T5, P38a/MAPK14 (Homo sapiens, UniProt Q16539); assay: HotSpot kinase assay; format: biochemical; settings: read-out: % Enzyme Activity (relative to DMSO controls)
T5 construct: purchased Reaction Biology Corporation

PLK4/SAK = target: T6, PLK4/SAK (Homo sapiens, UniProt O00444); assay: HotSpot kinase assay; format: biochemical; settings: read-out: % Enzyme Activity (relative to DMSO controls)
T6 construct: purchased Reaction Biology Corporation

ROCK2 = target: T7, ROCK2 (Homo sapiens, UniProt O75116); assay: HotSpot kinase assay; format: biochemical; settings: read-out: % Enzyme Activity (relative to DMSO controls)
T7 construct: purchased Reaction Biology Corporation

PIM1 = target: T8, PIM1 (Homo sapiens, UniProt P11309); assay: HotSpot kinase assay; format: biochemical; settings: read-out: % Enzyme Activity (relative to DMSO controls)
T8 construct: purchased Reaction Biology Corporation

KHS/MAP4K5 = target: T9, KHS/MAP4K5 (Homo sapiens, UniProt Q9Y4K4); assay: HotSpot kinase assay; format: biochemical; settings: read-out: % Enzyme Activity (relative to DMSO controls)
T9 construct: purchased Reaction Biology Corporation

NEK5 = target: T10, NEK5 (Homo sapiens, UniProt Q6P3R8); assay: HotSpot kinase assay; format: biochemical; settings: read-out: % Enzyme Activity (relative to DMSO controls)
T10 construct: purchased Reaction Biology Corporation

LRRK2 = target: T11, LRRK2 (Homo sapiens, UniProt Q5S007); assay: HotSpot kinase assay; format: biochemical; settings: read-out: % Enzyme Activity (relative to DMSO controls)
T11 construct: purchased Reaction Biology Corporation

TESK1 = target: T12, TESK1 (Homo sapiens, UniProt Q15569); assay: HotSpot kinase assay; format: biochemical; settings: read-out: % Enzyme Activity (relative to DMSO controls)
T12 construct: purchased Reaction Biology Corporation

PKAcb = target: T13, PKAcb (Homo sapiens, UniProt P22694); assay: HotSpot kinase assay; format: biochemical; settings: read-out: % Enzyme Activity (relative to DMSO controls)
T13 construct: purchased Reaction Biology Corporation

MLK2/MAP3K10 = target: T14, MLK2/MAP3K10 (Homo sapiens, UniProt Q02779); assay: HotSpot kinase assay; format: biochemical; settings: read-out: % Enzyme Activity (relative to DMSO controls)
T14 construct: purchased Reaction Biology Corporation

GRK5 = target: T15, GRK5 (Homo sapiens, UniProt P34947); assay: HotSpot kinase assay; format: biochemical; settings: read-out: % Enzyme Activity (relative to DMSO controls)
T15 construct: purchased Reaction Biology Corporation

SSTK/TSSK6 = target: T16, SSTK/TSSK6 (Homo sapiens, UniProt Q9BXA6); assay: HotSpot kinase assay; format: biochemical; settings: read-out: % Enzyme Activity (relative to DMSO controls)
T16 construct: purchased Reaction Biology Corporation

HSV-2(G) [2] = assay: nuclear transport of VP-16 (immunoblot of nuclear extracts); format: cell-based; settings: HaCat and primary vaginal cells, 1 h; CIMSS 10 μM, antibody 2 μg/ml
Procedure: (§1) To quantify viral entry, cells were synchronously infected by allowing virus to bind to cells at 4°C for 4 h, washed, and then transferred to 37 °C. CIMSS or control DMSO was added at the time of temperature shift. At indicated times post-temperature shift, the cells were treated with a low pH buffer to inactivate virus that had not penetrated, washed, overlaid with medium containing methyl cellulose and viral plaques were counted at 48 h. Entry was also assessed by immunoblotting nuclear extracts for VP16. […] Nuclear extracts were prepared after 1 h and analyzed by western blot with antibodies targeting VP16, histone H1 and golgin-97[5]. The non-nuclear fraction was also probed for golgin-97 as a positive control. […] After 1 or 4 h of incubation, the cells were fixed. Plasma membranes were stained using Image -IT^TM LIVE Plasma Membrane kit and nuclei were stained with DAPI (Thermo Fisher Scientific, Cat 134406). The percentage of GFP + nuclei was determined by counting ~200 cells over 3–4 fields. Images were obtained with Leica SP8 microscope (objective 63 × 1.4); xz images were captured with optical slice 0.6 µm, 25–30 slices per image.

ALK3/BMPR1A = target: T17, ALK3/BMPR1A (Homo sapiens, UniProt P36894); assay: HotSpot kinase assay; format: biochemical; settings: read-out: % Enzyme Activity (relative to DMSO controls)
T17 construct: purchased Reaction Biology Corporation

MRCKb/CDC42BPB = target: T18, MRCKb/CDC42BPB (Homo sapiens, UniProt Q9Y5S2); assay: HotSpot kinase assay; format: biochemical; settings: read-out: % Enzyme Activity (relative to DMSO controls)
T18 construct: purchased Reaction Biology Corporation

HSV-2(G) [3] = assay: synchronized infection (entry) assay, HaCat cells; format: cell-based; settings: 10 μM
Procedure: as §1

STK38L/NDR2 = target: T19, STK38L/NDR2 (Homo sapiens, UniProt Q9Y2H1); assay: HotSpot kinase assay; format: biochemical; settings: read-out: % Enzyme Activity (relative to DMSO controls)
T19 construct: purchased Reaction Biology Corporation

MASTL = target: T20, MASTL (Homo sapiens, UniProt Q96GX5); assay: HotSpot kinase assay; format: biochemical; settings: read-out: % Enzyme Activity (relative to DMSO controls)
T20 construct: purchased Reaction Biology Corporation

GRK6 = target: T21, GRK6 (Homo sapiens, UniProt P43250); assay: HotSpot kinase assay; format: biochemical; settings: read-out: % Enzyme Activity (relative to DMSO controls)
T21 construct: purchased Reaction Biology Corporation

MST4 = target: T22, MST4 (Homo sapiens, UniProt Q9P289); assay: HotSpot kinase assay; format: biochemical; settings: read-out: % Enzyme Activity (relative to DMSO controls)
T22 construct: purchased Reaction Biology Corporation

CK1d = target: T23, CK1d (Homo sapiens, UniProt P48730); assay: HotSpot kinase assay; format: biochemical; settings: read-out: % Enzyme Activity (relative to DMSO controls)
T23 construct: purchased Reaction Biology Corporation

ITK = target: T24, ITK (Homo sapiens, UniProt Q08881); assay: HotSpot kinase assay; format: biochemical; settings: read-out: % Enzyme Activity (relative to DMSO controls)
T24 construct: purchased Reaction Biology Corporation

SNRK = target: T25, SNRK (Homo sapiens, UniProt Q9NRH2); assay: HotSpot kinase assay; format: biochemical; settings: read-out: % Enzyme Activity (relative to DMSO controls)
T25 construct: purchased Reaction Biology Corporation

IRAK1 = target: T26, IRAK1 (Homo sapiens, UniProt P51617); assay: HotSpot kinase assay; format: biochemical; settings: read-out: % Enzyme Activity (relative to DMSO controls)
T26 construct: purchased Reaction Biology Corporation

[4] = Supplementary Table 1, read-out: IC50 (Molar concentration)
[5] = read-out: % Enzyme Activity (relative to DMSO controls), 10µM

T1 sequence (Q9Y243 whole entry): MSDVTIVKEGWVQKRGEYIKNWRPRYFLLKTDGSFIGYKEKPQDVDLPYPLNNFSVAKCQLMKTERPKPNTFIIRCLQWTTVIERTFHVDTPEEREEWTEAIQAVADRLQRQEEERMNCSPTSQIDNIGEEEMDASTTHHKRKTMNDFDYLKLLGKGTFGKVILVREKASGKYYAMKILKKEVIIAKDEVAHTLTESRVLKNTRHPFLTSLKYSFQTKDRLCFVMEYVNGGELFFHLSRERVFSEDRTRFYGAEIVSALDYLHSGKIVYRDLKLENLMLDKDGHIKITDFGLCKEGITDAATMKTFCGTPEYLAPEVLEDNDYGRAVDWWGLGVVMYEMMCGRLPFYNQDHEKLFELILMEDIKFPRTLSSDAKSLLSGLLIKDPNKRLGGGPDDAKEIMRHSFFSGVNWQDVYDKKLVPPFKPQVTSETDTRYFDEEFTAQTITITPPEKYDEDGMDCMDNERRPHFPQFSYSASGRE
T2 sequence (P12931 whole entry): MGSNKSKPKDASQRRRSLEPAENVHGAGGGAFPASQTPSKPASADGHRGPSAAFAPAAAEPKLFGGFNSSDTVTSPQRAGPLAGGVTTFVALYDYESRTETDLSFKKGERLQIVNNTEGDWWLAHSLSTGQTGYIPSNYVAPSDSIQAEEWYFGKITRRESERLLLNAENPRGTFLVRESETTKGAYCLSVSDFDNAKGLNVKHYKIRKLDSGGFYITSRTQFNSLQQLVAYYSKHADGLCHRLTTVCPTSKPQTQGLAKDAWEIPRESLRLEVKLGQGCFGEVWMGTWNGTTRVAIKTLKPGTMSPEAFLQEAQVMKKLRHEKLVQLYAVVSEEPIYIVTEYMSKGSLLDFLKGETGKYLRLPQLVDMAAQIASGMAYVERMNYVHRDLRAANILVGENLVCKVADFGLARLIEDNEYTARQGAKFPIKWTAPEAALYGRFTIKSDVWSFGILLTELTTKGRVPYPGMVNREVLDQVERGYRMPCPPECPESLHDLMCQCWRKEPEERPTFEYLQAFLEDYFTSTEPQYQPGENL
T17 sequence (P36894 24-532): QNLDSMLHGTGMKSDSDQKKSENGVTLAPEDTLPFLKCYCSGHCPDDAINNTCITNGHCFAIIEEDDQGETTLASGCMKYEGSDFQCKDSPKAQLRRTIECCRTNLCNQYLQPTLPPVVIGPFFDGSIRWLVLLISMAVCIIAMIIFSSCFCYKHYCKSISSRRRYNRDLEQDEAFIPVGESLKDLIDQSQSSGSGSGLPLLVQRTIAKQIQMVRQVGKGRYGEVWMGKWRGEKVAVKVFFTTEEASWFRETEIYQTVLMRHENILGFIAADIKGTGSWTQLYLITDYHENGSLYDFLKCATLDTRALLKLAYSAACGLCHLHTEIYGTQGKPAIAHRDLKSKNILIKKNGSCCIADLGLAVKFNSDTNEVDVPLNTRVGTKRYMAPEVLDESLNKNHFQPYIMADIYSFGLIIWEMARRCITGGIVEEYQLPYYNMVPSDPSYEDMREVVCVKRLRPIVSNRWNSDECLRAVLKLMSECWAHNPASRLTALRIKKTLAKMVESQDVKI
T23 sequence (P48730 whole entry): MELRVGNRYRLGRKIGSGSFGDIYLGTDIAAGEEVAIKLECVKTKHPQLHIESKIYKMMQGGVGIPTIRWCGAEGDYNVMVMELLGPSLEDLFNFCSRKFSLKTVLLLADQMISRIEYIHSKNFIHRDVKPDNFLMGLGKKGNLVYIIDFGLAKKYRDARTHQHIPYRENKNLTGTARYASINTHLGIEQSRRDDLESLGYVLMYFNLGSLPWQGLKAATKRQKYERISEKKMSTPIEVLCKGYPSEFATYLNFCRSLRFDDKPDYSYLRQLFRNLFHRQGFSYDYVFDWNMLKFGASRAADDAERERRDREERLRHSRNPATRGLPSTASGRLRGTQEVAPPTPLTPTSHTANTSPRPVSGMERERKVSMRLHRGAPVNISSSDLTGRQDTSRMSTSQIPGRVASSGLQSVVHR
T22 sequence (Q9P289 whole entry): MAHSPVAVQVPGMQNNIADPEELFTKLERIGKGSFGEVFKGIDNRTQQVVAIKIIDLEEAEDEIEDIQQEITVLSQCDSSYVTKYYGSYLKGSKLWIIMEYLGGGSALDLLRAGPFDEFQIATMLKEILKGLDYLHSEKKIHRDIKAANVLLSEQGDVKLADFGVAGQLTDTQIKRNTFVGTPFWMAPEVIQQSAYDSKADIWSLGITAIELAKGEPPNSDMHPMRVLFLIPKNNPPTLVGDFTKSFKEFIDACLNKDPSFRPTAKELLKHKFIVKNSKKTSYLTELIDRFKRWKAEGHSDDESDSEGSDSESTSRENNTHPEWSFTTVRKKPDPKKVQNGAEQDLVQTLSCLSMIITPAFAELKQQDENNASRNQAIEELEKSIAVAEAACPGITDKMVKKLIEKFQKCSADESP
T12 sequence (Q15569 whole entry): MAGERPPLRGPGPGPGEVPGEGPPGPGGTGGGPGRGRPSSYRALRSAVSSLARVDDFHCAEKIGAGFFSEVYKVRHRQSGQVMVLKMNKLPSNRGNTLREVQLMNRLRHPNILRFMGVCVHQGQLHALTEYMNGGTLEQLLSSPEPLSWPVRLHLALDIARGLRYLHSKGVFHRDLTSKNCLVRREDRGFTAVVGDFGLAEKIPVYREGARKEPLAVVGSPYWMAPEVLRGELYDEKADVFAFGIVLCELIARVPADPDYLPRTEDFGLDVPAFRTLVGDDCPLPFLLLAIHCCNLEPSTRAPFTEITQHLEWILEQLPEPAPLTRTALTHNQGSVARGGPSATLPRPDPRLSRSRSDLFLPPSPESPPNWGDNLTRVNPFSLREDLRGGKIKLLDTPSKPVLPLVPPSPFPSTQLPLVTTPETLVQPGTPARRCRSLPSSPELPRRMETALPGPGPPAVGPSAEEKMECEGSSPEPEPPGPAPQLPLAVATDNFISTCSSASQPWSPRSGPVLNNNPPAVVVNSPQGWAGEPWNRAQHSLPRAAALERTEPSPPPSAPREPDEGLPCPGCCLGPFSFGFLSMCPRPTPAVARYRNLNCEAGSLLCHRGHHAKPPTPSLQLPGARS
T21 sequence (P43250 whole entry): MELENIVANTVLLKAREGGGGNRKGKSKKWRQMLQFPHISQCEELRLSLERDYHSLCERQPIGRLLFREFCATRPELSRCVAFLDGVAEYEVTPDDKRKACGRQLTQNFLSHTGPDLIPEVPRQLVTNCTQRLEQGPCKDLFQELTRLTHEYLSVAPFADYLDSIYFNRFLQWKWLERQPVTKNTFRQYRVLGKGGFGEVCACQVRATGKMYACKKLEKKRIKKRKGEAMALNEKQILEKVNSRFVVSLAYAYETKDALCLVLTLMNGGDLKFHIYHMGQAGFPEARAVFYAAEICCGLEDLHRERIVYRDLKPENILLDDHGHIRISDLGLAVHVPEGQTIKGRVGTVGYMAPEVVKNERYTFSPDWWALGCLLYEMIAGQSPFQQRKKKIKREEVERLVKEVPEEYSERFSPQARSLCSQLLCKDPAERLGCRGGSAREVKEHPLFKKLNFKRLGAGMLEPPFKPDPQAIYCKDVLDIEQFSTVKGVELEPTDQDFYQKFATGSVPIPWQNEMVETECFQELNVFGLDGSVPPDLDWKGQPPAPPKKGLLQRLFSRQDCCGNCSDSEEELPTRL
T8 sequence (P11309 whole entry): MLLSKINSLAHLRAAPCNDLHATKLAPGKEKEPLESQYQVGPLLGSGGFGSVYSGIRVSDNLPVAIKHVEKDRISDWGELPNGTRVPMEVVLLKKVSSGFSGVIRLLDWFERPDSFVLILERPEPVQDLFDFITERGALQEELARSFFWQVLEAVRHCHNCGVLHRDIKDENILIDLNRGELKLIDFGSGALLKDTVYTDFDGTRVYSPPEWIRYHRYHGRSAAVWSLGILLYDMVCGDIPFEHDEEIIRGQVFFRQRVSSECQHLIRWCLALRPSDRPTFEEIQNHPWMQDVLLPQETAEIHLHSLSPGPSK
T26 sequence (P51617 whole entry): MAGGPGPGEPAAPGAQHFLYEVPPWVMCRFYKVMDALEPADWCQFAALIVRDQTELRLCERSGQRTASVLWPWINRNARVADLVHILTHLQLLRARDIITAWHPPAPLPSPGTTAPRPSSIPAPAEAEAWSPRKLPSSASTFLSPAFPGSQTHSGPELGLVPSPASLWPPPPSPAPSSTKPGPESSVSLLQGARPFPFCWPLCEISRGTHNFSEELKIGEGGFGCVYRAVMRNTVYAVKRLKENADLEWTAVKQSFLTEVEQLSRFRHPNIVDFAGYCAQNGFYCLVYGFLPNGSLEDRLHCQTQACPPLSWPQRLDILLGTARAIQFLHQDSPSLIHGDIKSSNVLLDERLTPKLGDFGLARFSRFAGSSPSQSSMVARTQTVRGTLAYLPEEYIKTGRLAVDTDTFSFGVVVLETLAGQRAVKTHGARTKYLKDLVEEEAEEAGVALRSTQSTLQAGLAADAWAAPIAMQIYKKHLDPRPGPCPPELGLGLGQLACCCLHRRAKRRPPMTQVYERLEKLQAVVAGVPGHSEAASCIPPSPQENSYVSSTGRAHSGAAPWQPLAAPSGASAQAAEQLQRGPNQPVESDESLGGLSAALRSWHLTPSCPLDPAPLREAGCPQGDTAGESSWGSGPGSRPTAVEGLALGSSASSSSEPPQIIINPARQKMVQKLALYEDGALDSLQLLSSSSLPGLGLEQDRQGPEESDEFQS
T5 sequence (Q16539 whole entry): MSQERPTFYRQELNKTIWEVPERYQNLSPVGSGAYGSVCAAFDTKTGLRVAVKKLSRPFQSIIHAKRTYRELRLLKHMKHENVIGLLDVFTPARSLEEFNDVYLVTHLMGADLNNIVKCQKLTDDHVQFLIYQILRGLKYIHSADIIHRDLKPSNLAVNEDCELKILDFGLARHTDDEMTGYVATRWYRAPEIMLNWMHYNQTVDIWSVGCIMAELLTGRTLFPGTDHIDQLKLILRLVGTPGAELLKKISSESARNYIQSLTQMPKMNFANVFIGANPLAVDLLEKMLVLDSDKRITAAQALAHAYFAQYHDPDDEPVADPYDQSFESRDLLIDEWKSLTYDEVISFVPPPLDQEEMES

In the case of `CO[C@@H]1[C@H](N(C)C(=O)CCC(=O)NCc2cn(CCCS(=O)(=O)O)nn2)C[C@H]2O[C@]1(C)n1c3ccccc3c3c4c(c5c6ccccc6n2c5c31)C(=O)NC4` [CIMSS], the IC50 (AKT3; [4]) is reported as 157 nM, the remaining activity at 10 µM (AKT3; [5]) is reported as 11.4% and the inhibition at 10 µM (AKT3; read-out: inhibition of Akt3) is reported as over 75%. The “extended Ca2+ release” value ([1]; 10 µM, first hour pi) was “significant reduction”, the “initial Ca2+ transient” value ([1]; 10 µM, first three minutes) was “did not block” and the mean calcium released ([1]; 3 minutes) was 38.88 and 30.45 and 39.3074 and 44.7233. For the same molecule, the mean calcium released ([1]; 1 hour) was 90.67 and 95.94 and 99.48 and 102.73, the IC50 (c-Src; [4]) was 11.9 nM and the remaining activity at 10 µM (c-Src; [5]) was 2.95%. The remaining activity at 10 µM (ZAP70) was 13%, the “extracellular phosphorylation of Akt” value (Akt (pAkt T308)) was “inhibited” and the VSV-S infection (VSV-S) was “inhibited”. For the same molecule, the remaining activity at 10 µM (LATS1) was 9.89%, the remaining activity at 10 µM (P38a/MAPK14) was 102% and the remaining activity at 10 µM (PLK4/SAK) was 6.73%. For the same molecule, the remaining activity at 10 µM (ROCK2) was 12.7%, the remaining activity at 10 µM (PIM1) was 0.88% and the remaining activity at 10 µM (KHS/MAP4K5) was 5.19%. For the same molecule, the remaining activity at 10 µM (NEK5) was 6.56%, the remaining activity at 10 µM (LRRK2) was 1.69% and the remaining activity at 10 µM (TESK1) was 83%. It also gave a remaining activity at 10 µM (PKAcb) of 1.62%, a remaining activity at 10 µM (MLK2/MAP3K10) of 1.86% and a remaining activity at 10 µM (GRK5) of 7.35%. For the same molecule, the remaining activity at 10 µM (SSTK/TSSK6) was 95.7%, the “nuclear transport of VP-16” value (HSV-2(G) [2]) was “inhibited” and the remaining activity at 10 µM (ALK3/BMPR1A) was 79.5%. The remaining activity at 10 µM (MRCKb/CDC42BPB) was 75.8%, the “plaques counted at 48 h” value (HSV-2(G) [3]; 1 h post-temperature shift) was 11 and 17 and the “plaques counted at 48 h” value (HSV-2(G) [3]; 2 h post-temperature shift) was 19 and 11. The viral plaque formation (HSV-2(G) [3]; each timepoint 0.5–2 h, p < 0.001) was “significant reduction”, the remaining activity at 10 µM (STK38L/NDR2) was 22.7% and the remaining activity at 10 µM (MASTL) was 33.8%. It also gave a remaining activity at 10 µM (GRK6) of 8.36%, a remaining activity at 10 µM (MST4) of 1.35% and a remaining activity at 10 µM (CK1d) of 106%. The remaining activity at 10 µM (ITK) was 4.12%, the remaining activity at 10 µM (SNRK) was 72.5% and the remaining activity at 10 µM (IRAK1) was 3.57%.
